Measured values from a melting point compilation (Tetko et al.; mined from patent text by program, amines drawn as free bases though some values may be those of a salt).

Row | Compound | melting point [°C]
1 | CC(=O)SCC(CCc1cccc(C)c1)C(=O)O (stereo unspecified) | 52 to 54
2 | CN1C2CCC1CC(n1cc(-c3ccc(Oc4ccccc4)cc3)c3c(N)ncnc31)C2 (stereo unspecified) | 238 to 250
3 | Cc1cc(C)cc(CCCn2c(=O)c3c(N4CCN(C)CC4)cc(Cl)cc3n(Cc3ccccc3)c2=O)c1 | 67 to 73
4 | Cc1nc(N2CCN(Cc3ccc(F)cc3)C2=O)sc1C(=O)NCc1cccnc1 | 177 to 179
5 | CN(C)c1nc2sc3c(NCc4ccco4)ncnc3c2c2c1CC(C)(C)C2 | 217
6 | COc1ccc(C(=O)Nc2cc(NC(=O)c3cccc(NS(C)(=O)=O)c3)ccc2C)cc1OC | > 300
7 | CC(C)(C)OC(=O)[C@H](O)CCc1ccc([N+](=O)[O-])cc1 | 41 to 42
8 | CCOCCOc1ccc2c(c1)C(CNS(=O)(=O)CC)CC(C)(C)O2 (stereo unspecified) | 70 to 72
9 | CCCCC(CNC(=O)Nc1c(C(C)C)cccc1C(C)C)c1ccc2c(c1)OCO2 (stereo unspecified) | 153 to 155
10 | CC(C)c1cccc(C(C)C)c1NC(=O)NC1CCC(C(C)(C)C)CC1 (stereo unspecified) | 264 to 266
11 | O=c1nc(-c2cccc(S(=O)(=O)Cc3ccccc3)n2)sc2ccccc12 | 217 to 218
12 | COc1ccc(C=Cc2cc(OC)cc(OC)c2)cc1 | 55 to 56
13 | O=C(O)Cc1cccc(NC(=O)NCC(=O)N2[C@@H](c3ccccc3)CC[C@H]2c2ccccc2)c1 | 152
14 | Clc1cccc(NNc2cccc(Cl)c2)c1 | 116
15 | CCCCc1nn(CC(F)(F)F)c(C(=O)O)c1Cc1ccc2oc(-c3ccccc3-c3nnn[nH]3)c(Br)c2c1 | 216 to 220
16 | COCCSC(F)(F)C(O)(Cn1cncn1)c1ccc(F)cc1F (stereo unspecified) | 80 to 81
17 | Cc1ccc(N2N=C(C(F)(F)F)CC2c2ccc(S(C)(=O)=O)cc2)cc1 (stereo unspecified) | 140 to 143
18 | C=CCOc1cc(C)c2ccc(=O)oc2c1 | 83
19 | O=C(Nc1nc2c(s1)CC(N1CCN(c3ccccn3)CC1)CC2)c1ccccc1 (stereo unspecified) | 230 to 232
20 | CCc1ccc(C2(OC(C)=O)C(=O)c3ccccc3C2=O)c(OC(C)=O)c1 | 136 to 137
21 | OCCCCCCCCCCCCCCCCN(CCO)CCO | 67.6 to 68.8
22 | CS(=O)(=O)N1CCn2c(nc3c(N)nc4cc(Br)ccc4c32)C1 | 315 to 317
23 | CC[C@H](C(N)=O)N1CCCC1=O | 115 to 117
24 | O=C(CCC(O)c1ccccc1)NC1CCCCC1 (stereo unspecified) | 91 to 93
25 | CNC(=O)c1ccc2c(c1C)OC(c1ccccc1)(c1ccccc1)O2 | 178 to 180
26 | CC(C)(C)OC(=O)NCc1nnc(S)s1 | 144 to 146

Row | Compound | melting point [°C]
27 | CS(=O)(=O)c1ccc([C@@H](CC2CCCC2)C(=O)Nc2cnc(C(CO)CO)cn2)cc1Cl | 110 to 120
28 | C[C@@H]1C(=O)N(c2ccc(C#N)c(C(F)(F)F)c2)[C@@H](C)[C@H]1O | 82 to 85
29 | CCOC(=O)c1cc(C(=O)c2cccc(S(=O)(=O)F)c2)sc1NC(=O)OCC(Cl)(Cl)Cl | 108 to 110
30 | COc1ccc(-c2[nH]nc3c2C(=O)c2c(NC(=O)Cc4ccc5c(c4)OCCO5)cccc2-3)cc1 | 297
31 | O=c1[nH]ncc2ccc(/C=C/c3ccc(O)cc3)cc12 | 305 to 308
32 | CCC(C)Nc1cc(N2CCc3cc(OC)cc(Cl)c32)nc(C)n1 (stereo unspecified) | 102 to 105
33 | COc1ccc(CC2CNC(=O)N2)cc1O (stereo unspecified) | 192 to 202
34 | CC(C)Nc1cccc(C2CN3CCSC3=N2)c1 (stereo unspecified) | 47 to 51
35 | CN1CCC(O)(C2SCCCS2)CC1 | 115 to 120
36 | Brc1ccc(OC2CCOCC2)cc1 | 53 to 55
37 | CCOc1c(C=NO)c(=O)n(C)c(=O)n1C | 115
38 | COc1nc(O)cc(CCl)n1 | 154 to 155
39 | O=C(O)c1ccc2c(c1)S(=O)(=O)c1ccccc1C2 | 229 to 248
40 | ClC(Cl)(Cl)c1nc2ncccc2[nH]1 | 210
41 | O=C(O)c1cc(-n2c(-c3cccc(C(F)(F)F)c3)cc3c2CCCC3)ccc1O | 215 to 225
42 | O=C(O)C1CSC(c2ccccc2OCC2CCC(CO[N+](=O)[O-])CC2)N1 (stereo unspecified) | 108 to 111
43 | CCOP(=O)(OCC)c1cc2nc(OCc3ccccc3)c(OCc3ccccc3)nc2c2c1CN(C)CC2 | 104
44 | O=c1[nH]c2ccc(C(F)(F)F)cc2c(-c2cc(Cl)ccc2O)c1CO | > 250
45 | CCOC(=O)C(=CNc1ccnn1-c1ccccc1)C(=O)OCC | 96 to 97
46 | NC(=O)c1ccn2c1CSC2 | 186
47 | Cc1nn2c(-c3cccnc3)ccnc2c1C#N | 245 to 246
48 | COCCc1nc2c(N)nc3ccccc3c2n1CC1(O)CCOCC1 | 205 to 206
49 | COc1ccc2c(c1)C(O)(c1ccccn1)CC(C)(C)CO2 (stereo unspecified) | 98
50 | CCCCCCCC(O)CNCCCCCCNCC(O)CCCCCCC (stereo unspecified) | 122 to 129
51 | C=CCOc1ccc(C(=O)c2ccnn2C)c(Cl)c1Cl | 118 to 119
52 | O=c1ccccn1[C@@H]1c2cc(C(F)(F)F)ccc2OC(CF)(CF)[C@H]1O (relative stereo) | 210 to 212

Row | Compound | melting point [°C]
53 | CN(c1ccc(Cl)cc1)S(=O)(=O)c1c[nH]cn1 | 217 to 219
54 | CCOC(=O)C(C)c1csc(=Nc2ccccc2)n1C (stereo unspecified) | 80 to 81
55 | O=c1n(CC2CO2)c(=O)n(CC2CO2)n1CC1CO1 (stereo unspecified) | 93 to 94
56 | O=C1CCC(N2Cc3c(OCC4Cc5ccccc5O4)cccc3C2=O)C(=O)N1 (stereo unspecified) | 258 to 260
57 | CC(C)n1nc(-c2c(OCCN)nc(N)nc2-c2ccccc2)ccc1=O | 213 to 216
58 | CCCc1nn(-c2ccc(C(F)(F)F)cn2)cc1CCCOc1cc(CCC(=O)O)cc(OC)c1 | 98 to 99
59 | CC(Cc1c[nH]c2ccccc12)(NC(=O)OC1C2CC3CC(C2)CC1C3)C(=O)NCCc1nc[nH]n1 (stereo unspecified) | 124 to 128
60 | CS(=O)(=O)Nc1cc([C@@H](O)CNC2CCN(c3ccc(S(=O)(=O)N(CC(=O)O)CC(=O)O)cc3)CC2)ccc1O | 163 to 166
61 | C=C1SC(=S)N(c2ccc3cc(-c4ccc(OC)c(-c5ccccc5)c4)ccc3c2)C1=O | 266 to 269
62 | COc1ccccc1OC(CCN)c1ccccc1 (stereo unspecified) | 118 to 121
63 | O=C(O)Cc1ccc(CCl)cc1 | 147 to 149
64 | CCC1(c2cccs2)OCC(=O)Nc2ccc(-c3ccc(F)c(C#N)c3)cc21 (stereo unspecified) | 197 to 199
65 | O=C1Cc2ccccc2C1(Cc1ccncc1)Cc1ccncc1 | 95 to 96
66 | CCc1c(-c2ccc(OC)cc2)c2ccc3cc(OC)cc1n32 | 109 to 111
67 | COc1ccc(Sc2nc(-c3ccccc3)n(Cc3cc4c(cc3Cl)OCO4)c2C=O)cc1 | 116
68 | CS(=O)(=O)c1ccc(-c2cnn(-c3ccc(C(F)(F)F)cc3)c(=O)c2-c2ccc(F)cc2)cc1 | 171 to 173
69 | CN(C)S(=O)(=O)Oc1c(Cl)cc(C(C)(C)C)cc1CNC(=O)OC(C)(C)C | 122 to 123
70 | COc1ccc(/C=C(\C#N)c2ccc(O)cc2)cc1OC1CCCC1 | 138 to 140
71 | O=C1C(CCO)Oc2cc(F)ccc2N1Cc1cccc(Cl)c1 (stereo unspecified) | 79 to 82
72 | Cc1cc(-n2ccnc2)c2cccc(OCc3c(Cl)ccc(S(=O)(=O)N4CCCC[C@H]4C(=O)O)c3Cl)c2n1 | 208
73 | O=C(Nc1ccc(Cl)cc1)NC1CCN(C(=O)Cc2c[nH]cn2)CC1 | 174 to 176
74 | Cc1ccc(C(=O)NC(N2CCN(c3cccc(F)c3)C2=S)C(Cl)(Cl)Cl)cc1 (stereo unspecified) | 184 to 186
75 | Oc1cc(Cl)nc(Cl)c1 | 201 to 202
76 | CCn1ncc2c1ncc1c(NC)nc3ncnn3c12 | > 300
77 | S=c1[nH]c2cccc(OCCN3CCc4ccccc4C3)c2[nH]1 | 249 to 250
78 | O=C(c1ccc(-c2ccccc2)cc1)c1ccc([N+](=O)[O-])cc1 | 174 to 176

Row | Compound | melting point [°C]
79 | CCC(CC)(C(=O)N(C)C)n1cc(C)c(-c2ccccc2)n1 | 135 to 136
80 | O=C1CN=C(C2CCCCC2)c2cc(Cl)ccc2N1 | 210
81 | C=C1N(CC)C(=O)OC12CCN(CCCN1c3ccccc3Sc3ccccc31)CC2 | 122 to 123
82 | COCCCNC(=O)C1CCN(C(=O)c2[nH]c(C)c(-c3nc4ccc(C(=O)c5ccccc5)cc4[nH]3)c2C)CC1 | 289 to 291
83 | COc1cc(COc2nn(-c3ccccc3)cc2/C=C/c2csc(C(C)C)n2)ccc1OCc1nc(-c2ccc(CC(=O)O)cc2)oc1C | 107 to 109
84 | CN1CCN(CC(=O)N2c3ccccc3N(C)C(=O)c3cncnc32)CC1 | 183 to 185
85 | C=CC(CCc1ccccc1)NC(=O)OC(C)(C)C (stereo unspecified) | 53
86 | CCOC(=O)c1ccc(CCN(C)CCCC(C#N)(C(=O)OC)c2ccc(OC)c(OC)c2)cc1 (stereo unspecified) | 88 to 89
87 | O=C(O)c1c(Cl)ccc2cc(C(F)(F)F)c(C(F)(F)F)nc12 | 108 to 111
88 | CC(C(=O)O)n1cc(-c2ccccc2)c(=O)c(-c2cccc(C(F)(F)F)c2)c1 (stereo unspecified) | 236 to 237
89 | O=C(Nc1ccc(-n2nc(C(F)(F)F)cc2C(F)(F)F)cc1)c1ccc(Br)cc1Cl | 164 to 167
90 | COc1cc(OC)c(-c2cccs2)cc1/C=C/C(=O)c1cccc(C(=O)O)c1 | 179 to 182
91 | CC(C)=CCN1CCN(CCC(=O)N2c3ccccc3C(=O)Nc3cccnc32)CC1 | 199 to 201
92 | CC1(C)OC(c2cccs2)CN1C(=O)C(Cl)Cl (stereo unspecified) | 104 to 105
93 | O=C1N(Cc2ccc(-c3ccccn3)cc2)c2ccccc2C12COc1cc3c(cc12)CCO3 (stereo unspecified) | 217 to 219
94 | CCCCCCCCCCCCCCCCOc1ccc(-c2nc(CC(=O)OCC)c(OCC)o2)cc1 | 44 to 45
95 | N=C1NC(=O)C(c2ccccc2)S1 (stereo unspecified) | 249 to 252
96 | CC1CCN(C(=O)C(Cc2cc3c(N)nccc3s2)NS(=O)(=O)c2ccc(OC3CCOCC3)cc2)CC1 (stereo unspecified) | 127 to 129
97 | CON=C(N)Nc1nccc(C)n1 | 152
98 | N#CC1CN1C(=O)c1cc2ccccc2o1 (stereo unspecified) | 92 to 94
99 | CC(C)(C)OC(=O)N1CCC2(CC1)CC(c1ccc(C#N)cc1)=NO2 | 169 to 171
100 | COc1ccc(C(=O)C=C2CCCN2)cc1 | 134 to 135
101 | FC(F)(F)Oc1ccc(-c2ccc(OCc3ccccc3)cc2)cc1 | 136 to 137
